Reference: patent US20110098323A1, “INHIBITORS OF BACTERIAL BIOFILM FORMATION” (MICROBIOTIX, INC., priority 2009, published 2011)
Read-outs that look alike come from different tables or passages of the source.

Key:
[1] = system: S. epidermidis strain 35894; assay: MBIC/MIC secondary assay; assay type: cell-based, Staphylococcus epidermidis; conditions: for MIC: Staphylococcus epidermidis
Protocol: (§1) Assays for detecting and measuring bacterial biofilm formation are known in the art. An example of a biofilm formation assay useful in detecting and characterizing biofilm inhibitor compounds is described in Example 1, infra. Briefly, bacterial cells are inoculated into growth medium in individual wells of a 96-well assay plate in the presence or absence of a compound (known biofilm inhibitor or test compound). After incubation for a specified time, growth medium and non-biofilm bacterial cells are removed from each of the wells. The bacterial cells in any biofilms that are adhered to the surface of a well are fixed by addition of ethanol. The ethanol is removed, and the fixed biofilm bacteria cells are stained with crystal violet (CV). The intensity of CV staining is directly correlated with bacterial biofilm formation and is measured in the wells by reading the optical density at 600 nm (OD600). The difference in biofilm formation between untreated control and treated cultures provides an indication of relative biofilm inhibition activity (anti-biofilm activity). Use of different concentrations of an inhibitor in multiple and otherwise duplicate cultures permits determination of a compound's Minimal Biofilm Inhibitory Concentration (MBIC), which is defined herein as the lowest concentration of a compound that inhibits biofilm formation by at least 80% (i.e., ≧80%) compared to untreated control cultures.
(§2) A higher throughput was achieved by formatting the assay for use in flat-bottomed 96-well assay plates (Costar 3590 assay plates, Corning Life Sciences, Lowell, Mass.). The biofilm cultures grew on the bottoms of each well in a surface attached mode. In each assay plate, columns 1 and 12 contained untreated cultures, which served as negative controls (0% biofilm inhibition). Each of the assay wells in columns 2-11 contained a unique small molecule from the Microbiotix Screening Library (MSL) at a final concentration of 100 μM. Assay plates were inoculated with 200 μl/well of a culture of Staphylococcus pidermidis 18972 in 0.5×Tryptic Soy Broth (TSB; Becton Dickinson, Franklin Lakes, N.J.) in which the concentration of glucose was adjusted to 0.25% (w/v). The bacterial inocula were prepared by making a 1:100 dilution of an overnight culture grown in TSB in the media used for the screen. After inoculation, assay plates were sealed with foil tape and incubated at 37° C. for 18-20 hours (h). The optical density at 600 nm (OD600) was measured for each well using a VICTOR2V™ multiplate reader (Perkin Elmer, Waltham, Mass.) in order to quantify overall bacterial growth. The assay plates were processed to remove bacterial growth media and non-biofilm cells from the bottom of each assay well. This was accomplished by using a BioTek ELx405™ plate washer (BioTek Instruments, Inc., Winooski, Vt.). Biofilm bacteria were fixed by addition of 50 μl of 95% ethanol for 30 minutes (min). The ethanol was removed, and the fixed biofilm cultures were stained with 50 μl of 0.06% crystal violet (CV) for 60 min. Excess CV was removed by repeated washes using the BioTek ELx405™ plate washer. The amount of CV bound to each assay well was quantified by measuring OD600 using a VICTOR2V™ plate reader (Perkin Elmer).
(§3) A secondary assay provided a quantitative measure of both anti-biofilm activity and antibacterial activity in terms of the Minimal Biofilm Inhibitory Concentration (MBIC) and the Minimal Inhibitory Concentration (MIC), respectively. The MBIC and MIC are defined as the lowest compound concentrations that inhibit biofilm formation and bacterial growth, respectively, by at least 80% (i.e., ≧80%). The MBIC/MIC assay is formatted in a manner that is similar to the Microbroth dilution assays described by the Clinical and Laboratory Standards Institute (CLSI; formerly NCCLS) in protocol M7-A7. The growth conditions were optimized for biofilm growth in 96-well assay plates such that the resulting CV staining was within the linear range of detection. […]

[2] = system: S. epidermidis strain 1457; assay: MBIC/MIC secondary assay; assay type: cell-based, Staphylococcus epidermidis; conditions: for MIC: Staphylococcus epidermidis
Protocol: as §1, §2, §3

[3] = system: S. aureus strain NRS-123; assay: MBIC/MIC secondary assay; assay type: cell-based, Staphylococcus aureus; conditions: for MIC: Staphylococcus aureus, NRS123
Protocol: as §1, §2, §3

[4] = system: methicillin-susceptible S. aureus (MSSA); assay: MBIC/MIC secondary assay; assay type: cell-based, Staphylococcus aureus; conditions: for MIC: Staphylococcus aureus
Protocol: as §1, §2, §3

[5] = system: S. aureus ATCC 35556; assay: MBIC/MIC secondary assay; assay type: cell-based, Staphylococcus aureus; conditions: for MIC: Staphylococcus aureus, ATCC35556
[6] = system: S. aureus ATCC 35556; assay: Inhibition of biofilm growth at various stages of biofilm development (time of addition); assay type: cell-based, Staphylococcus aureus; conditions: 22 hours total incubation, CV staining
Protocol: Compound 4 was added to bacterial cultures at a concentration of 4XMBIC (12 μM) at various times (0, 1, 2, 4, 6, 8, 10, 12, and 21 hours) over a 22 hour incubation period. Biofilm growth was also followed in parallel cultures in the absence of Compound 4 (untreated controls). Biofilm growth was quantified in samples by staining with crystal violet and measuring OD600. […] See, Example 5 for details.
In this experiment, wells of a 96-well assay plate containing growth medium (0.5×TSB, 0.25% (w/v) glucose) were inoculated with S. aureus ATCC 35556 and incubated at 37° C. At selected times (0, 1, 2, 4, 6, 8, 10, 12, 21 hours) during the incubation period, Compound 4 was added to individual wells at a concentration of 4×MBIC. Biofilms were washed and stained with crystal violet (CV) to measure biofilm growth after the entire assay plate (all cultures) had been incubated for a total of 22 hours. Biofilm growth in the absence of Compound 4 was followed in parallel cultures (untreated control cultures). Samples were taken from untreated cultures at the same times as Compound 4 was added to the inhibition cultures to quantify the level of biofilm growth by the CV staining method. […]

[7] = system: S. aureus ATCC 35556; assay: Planktonic growth curve assay; assay type: cell-based, Staphylococcus aureus; conditions: aerobic planktonic cultures; concentrations up to 8×MBIC; data not shown
Protocol: However, the specificity of these compounds for inhibiting biofilm growth was verified using an alternative growth curve assay. Planktonic cultures of S. aureus ATCC 35556 were grown aerobically in the presence of various concentrations of Compound 4 (MBIC=3.125 μM). Bacterial cell growth was monitored over time by measuring OD600.

[8] = S. aureus strain 35556, Table 5

MIC ([1]; S. epidermidis strain 35894, read-out: MIC) [µM]	MIC ([2]; S. epidermidis strain 1457, read-out: MIC) [µM]	MIC ([3]; S. aureus strain NRS-123, read-out: MIC) [µM]	MIC ([4]; S. aureus strain MSSA, read-out: MIC) [µM]	MIC ([5]; S. aureus strain 35556, Table 5, read-out: MIC) [µM]	SMILES	MBIC ([1]; S. epidermidis strain 35894) [µM]	MIC [1]; 35894 [µM]	MBIC ([2]; S. epidermidis strain 1457)	MIC [2]; 1457 [µM]	MBIC ([3]; S. aureus strain NRS-123) [µM]	MIC [3] [µM]	MBIC ([4]; S. aureus strain MSSA) [µM]	MIC ([4]; MSSA) [µM]	MBIC [5, 8] [µM]	MIC [5] [µM]	inhibition of biofilm formation, early stages ([6]; Compound added at 4×MBIC at early stages (up to 2 h))	inhibition of biofilm formation, maturing biofilms ([6]; Compound added at 4×MBIC to maturing biofilms (8-16 h))	effect on planktonic bacterial cell growth (OD600 over time) [7]	MBIC ([5]; S. aureus ATCC 35556, stated in text of Examples 5 and 6) [µM]
					CCOc1cc(/C=C2\SC(=S)N(c3cccc(C#N)c3)C2=O)ccc1O [Compound 34, 3-(3-cyanophenyl)-5-(3-ethoxy-4-hydroxybenzylidene)-2-thioxothiazolidin-4-one]	12.5	≥ 100	≧100 μM	≥ 100	25	≥ 100	12.5	≥ 100	1.6	≥ 100				
≥ 100	≥ 100	≥ 100	≥ 100	≥ 100	C=CCOc1cc(/C=C2\SC(=S)N(c3ccc(F)cc3)C2=O)ccc1O [Compound 29, 3-(4-fluorophenyl)-5-(3-allyloxy-4-hydroxybenzylidene)-2-thioxothiazolidin-4-one]	25		25 µM		25		12.5		3.1					
					CCOc1cc(/C=C2\SC(=S)N(c3cccc(F)c3)C2=O)ccc1O [Compound 8, 3-(3-fluorophenyl)-5-(3-ethoxy-4-hydroxybenzylidene)-2-thioxothiazolidin-4-one]	25	≥ 100	50 µM	≥ 100	25	≥ 100	25	≥ 100	6.3	≥ 100				
					CCOc1cc(/C=C2\SC(=S)N(c3ccc(F)nc3)C2=O)ccc1O [Compound 40, 3-(6-fluoropyridin-3-yl)-5-(3-ethoxy-4-hydroxybenzylidene)-2-thioxothiazolidin-4-one]	6.3	≥ 100	25 µM	≥ 100	50	≥ 100	6.3	≥ 100	6.3	≥ 100				
					CCOc1cc(/C=C2\SC(=S)N(c3ccc(F)cc3)C2=O)ccc1O [Compound 4, 3-(4-fluorophenyl)-5-(3-ethoxy-4-hydroxybenzylidene)-2-thioxothiazolidin-4-one]	25	≥ 100	50 µM	≥ 100	25	≥ 100	12.5	≥ 100	3.1	≥ 100	inhibited	resistant	did not affect	3.125
					CCOc1cc(/C=C2\SC(=S)N(c3cccnc3)C2=O)ccc1O [Compound 36, 3-(pyridin-3-yl)-5-(3-ethoxy-4-hydroxybenzylidene)-2-thioxothiazolidin-4-one]	12.5	≥ 100	12.5 µM	≥ 100	12.5	≥ 100	12.5	≥ 100	12.5	≥ 100				
